Patent US12448394B2, “Heterocyclic pyrazole derivatives as type III receptor tyrosine kinase inhibitors” (DEVELOPMENT CENTER FOR BIOTECHNOLOGY, priority 2019, dated 2025)

Assays:
[1] = system: THP-1 human acute monocytic leukemia cell with NRAS G12D mutation; experiment: THP-1 cell proliferation assay (counter screen); assay type: cell-based; conditions: Homo sapiens, THP-1 cells, 72 hours treatment, CellTiter96, read-out: anti-proliferation activity THP-1 NRAS N12D, IC50 ranking
Outline: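 THP-1 cells (NRAS G12D, growth independent of class III RTK signaling) seeded at 5000 cells/well overnight, then exposed to increasing compound concentrations for 72 h at 37° C, 5% CO2. Viability read by CellTiter96 AQueous One reagent (2–4 h) as absorbance at 490 nm.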

[2] = system: HCC827 NSCLC cell with EGFR exon 19 deletion mutation; experiment: HCC827 cell proliferation assay (counter screen); assay type: cell-based, human; conditions: Homo sapiens, HCC827 cells, 72 hours treatment, CellTiter96, read-out: anti-proliferation activity HCC827 EGFR Exon19 del, IC50 ranking
Outline: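 HCC827 cells (EGFR exon 19 deletion) were seeded at 8000 cells/well in RPMI1640 with 10% FBS, then exposed to increasing compound concentrations for 72 h at 37 °C. Viability was read by CellTiter96 AQueous One (MTS), absorbance 490 nm after 2–4 h.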

[3] = system: A375 melanoma cell with BRAF V600E mutation; experiment: A375 cell proliferation assay (counter screen); assay type: cell-based, human; conditions: Homo sapiens, A-375, A375 cells, 72 hours treatment, CellTiter96, read-out: anti-proliferation activity A375 BRAF V600E, IC50 ranking
Outline: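 A375 cells (BRAF V600E) seeded at 2000 cells/well in DMEM with 10% FBS, settled overnight at 37° C, 5% CO2, then exposed to increasing compound concentrations for 72 hours. Viability read by MTS-type CellTiter96 AQueous reagent, absorbance at 490 nm after 2–4 hours.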

MET kinase = target: T1, MET kinase (Homo sapiens, UniProt P08581); experiment: MET kinase assay (AlphaScreen, counter screen); assay type: biochemical; conditions: read-out: Ranking of IC50 values, MET
T1 construct: purchased SignalChem
Outline: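 Recombinant MET kinase (1 ng) phosphorylated biotinylated poly(Glu4:Tyr1) with […] ATP (so in the source) in MOPS pH 7.0 buffer with 10 mM MgCl2, 45 min at 30 °C, stopped with EDTA. Product read by AlphaScreen; IC50 from serial dilutions run in duplicate.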

T1 sequence (P08581 25-1390): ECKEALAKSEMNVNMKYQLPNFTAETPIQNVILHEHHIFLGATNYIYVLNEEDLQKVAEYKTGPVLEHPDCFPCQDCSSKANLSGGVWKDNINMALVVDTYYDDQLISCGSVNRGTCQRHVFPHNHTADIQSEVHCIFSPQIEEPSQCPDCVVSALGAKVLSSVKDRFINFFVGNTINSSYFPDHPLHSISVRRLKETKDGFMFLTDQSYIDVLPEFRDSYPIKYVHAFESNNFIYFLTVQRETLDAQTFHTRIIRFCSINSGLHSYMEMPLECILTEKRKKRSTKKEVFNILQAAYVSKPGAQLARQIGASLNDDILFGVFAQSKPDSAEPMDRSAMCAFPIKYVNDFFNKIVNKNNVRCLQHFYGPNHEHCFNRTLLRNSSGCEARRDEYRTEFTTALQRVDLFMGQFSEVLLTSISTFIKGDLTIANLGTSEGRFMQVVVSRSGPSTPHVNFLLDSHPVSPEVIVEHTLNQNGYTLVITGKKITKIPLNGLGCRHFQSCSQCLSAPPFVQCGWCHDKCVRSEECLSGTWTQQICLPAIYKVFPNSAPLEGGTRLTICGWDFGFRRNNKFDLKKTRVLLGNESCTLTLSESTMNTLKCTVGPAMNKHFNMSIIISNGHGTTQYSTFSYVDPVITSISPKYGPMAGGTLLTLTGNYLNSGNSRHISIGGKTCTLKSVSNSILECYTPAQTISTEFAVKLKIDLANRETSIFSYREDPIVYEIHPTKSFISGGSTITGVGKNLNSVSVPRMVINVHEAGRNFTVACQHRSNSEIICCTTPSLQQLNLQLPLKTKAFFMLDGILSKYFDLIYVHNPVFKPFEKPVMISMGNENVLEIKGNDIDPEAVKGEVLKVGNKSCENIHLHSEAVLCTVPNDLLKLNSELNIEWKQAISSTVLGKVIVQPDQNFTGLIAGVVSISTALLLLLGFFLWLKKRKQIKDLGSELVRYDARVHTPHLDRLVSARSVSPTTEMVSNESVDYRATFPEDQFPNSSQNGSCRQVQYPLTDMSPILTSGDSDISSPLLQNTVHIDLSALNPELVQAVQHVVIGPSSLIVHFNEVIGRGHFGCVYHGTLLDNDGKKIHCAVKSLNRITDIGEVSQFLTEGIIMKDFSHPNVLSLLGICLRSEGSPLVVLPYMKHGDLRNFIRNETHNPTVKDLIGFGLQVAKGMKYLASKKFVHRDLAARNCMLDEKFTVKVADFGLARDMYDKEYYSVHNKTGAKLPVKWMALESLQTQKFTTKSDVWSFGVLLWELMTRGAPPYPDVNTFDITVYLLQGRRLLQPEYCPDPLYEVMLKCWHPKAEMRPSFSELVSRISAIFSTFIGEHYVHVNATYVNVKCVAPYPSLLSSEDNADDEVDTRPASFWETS

Row | SMILES | IC50 [1] | IC50 [2] | IC50 [3] | IC50 (MET kinase)
1 | Cn1ncc2ccc(-c3n[nH]c4c3Cc3sc(-c5ccc(CN6CCCCC6=O)cc5)cc3-4)cc21 [Compound 61, 1-(4-(3-(l-methyl-1H-indazol-6-yl)-1,4-dihydro-thieno[2′,3′:4,5]cyclopenta [1,2-c]pyrazol-6-yl)benzyl)piperidin-2-one] | > 10 µM | > 10 µM | > 10 µM | > 1 µM
2 | Cn1ncc2ccc(-c3n[nH]c4c3Cc3sc(-c5ccc(CN6CCNC(=O)C6)cc5)cc3-4)cc21 [Compound 63, 4-(4-(3-(1-methyl-1H-indazol-6-yl)-1,4-dihydro-thieno[2′,3′:4,5]cyclopenta [1,2-c]pyrazol-6-yl)benzyl)piperazin-2-one] | > 10 µM | > 10 µM | > 10 µM | > 1 µM
3 | Cn1ncc2ccc(-c3n[nH]c4c3Cc3sc(-c5ccc(CN6CCCC6=O)cc5)cc3-4)cc21 [Compound 64, 1-(4-(3-(1-methyl-1H-indazol-6-yl)-1,4-dihydro-thieno[2′,3′:4,5]cyclopenta [1,2-c]pyrazol-6-yl)benzyl)pyrrolidin-2-one] | > 10 µM | > 10 µM | > 10 µM | > 1 µM
4 | CC1C(=O)N(C)CCN1Cc1ccc(-c2cc3c(s2)Cc2c(-c4ccc5cnn(C)c5c4)n[nH]c2-3)cc1 (stereo not shown) [Compound 65, 1,3-dimethyl-4-(4-(3-(1-methyl-1H-indazol-6-yl)-1,4-dihydrothieno [2′,3′:4,5]cyclopenta [1,2-c]pyrazol-6-yl)benzyl)piperazin-2-one] | > 10 µM | > 10 µM | > 10 µM | > 1 µM
5 | Cn1ncc2ccc(-c3n[nH]c4c3Cc3sc(-c5ccc(CCN6CCOCC6=O)cc5)cc3-4)cc21 [Compound 66, 4-(4-(3-(1-methyl-1H-indazol-6-yl)-1,4-dihydro-thieno[2′,3′:4,5]cyclopenta [1,2-c]pyrazol-6-yl)phenethyl)morpholin-3-one] | > 10 µM | > 10 µM | > 10 µM | > 1 µM
6 | Cn1ncc2ccc(-c3n[nH]c4c3Cc3sc(-c5ccc(CN6CCC(F)(F)C6)cc5)cc3-4)cc21 [Compound 67, 6-(4-((3,3-difluoro-pyrrolidin-1-yl)methyl)phenyl)-3-(1-methyl-1H-indazol-6-yl)-1,4-dihydro-thieno[2′,3′:4,5]cyclopenta [1,2-c]pyrazole] | > 10 µM | > 10 µM | > 10 µM | > 1 µM
7 | Cn1ncc2ccc(-c3n[nH]c4c3Cc3sc(-c5ccc(OCCN6CCOCC6)cc5)cc3-4)cc21 [Compound 69, 4-(2-(4-(3-(1-methyl-1H-indazol-6-yl)-1,4-dihydro-thieno[2′,3′:4,5]cyclopenta [1,2-c]pyrazol-6-yl)phenoxy)ethyl)morpholine] | > 10 µM | > 10 µM | > 10 µM | > 1 µM
8 | Cn1ncc2ccc(-c3n[nH]c4c3Cc3sc(-c5cccc(OCCN6CCOCC6)c5)cc3-4)cc21 [Compound 70, 4-(2-(3-(3-(1-methyl-1H-indazol-6-yl)-1,4-dihydro-thieno[2′,3′:4,5]cyclopenta [1,2-c]pyrazol-6-yl)phenoxy)ethyl)morpholine] | > 10 µM | > 10 µM | > 10 µM | > 1 µM
9 | Cn1ncc2ccc(-c3n[nH]c4c3Cc3sc(C#CCN5CCOCC5)cc3-4)cc21 [Compound 71, 4-(3-(3-(1-methyl-1H-indazol-6-yl)-1,4-dihydro-thieno[2′,3′:4,5]cyclopenta [1,2-c]pyrazol-6-yl)prop-2-yn-1-yl)morpholine] | 1 to 10 µM | > 10 µM | 1 to 10 µM | > 1 µM
10 | Cn1ncc2ccc(-c3n[nH]c4c3Cc3sc(-c5ccc(NC6CCOCC6)cc5)cc3-4)cc21 [Compound 72, N-(4-(3-(1-methyl-1H-indazol-6-yl)-1,4-dihydro-thieno[2′,3′:4,5]cyclopenta [1,2-c]pyrazol-6-yl)phenyl)tetrahydro-2H-pyran-4-amine] | > 10 µM | > 10 µM | > 10 µM | > 1 µM
11 | CN(c1ccc(-c2cc3c(s2)Cc2c(-c4ccc5cnn(C)c5c4)n[nH]c2-3)cc1)C1CCOCC1 [Compound 73, N-methyl-N-(4-(3-(1-methyl-1H-indazol-6-yl)-1,4-dihydrothieno [2′,3′:4,5]cyclopenta [1,2-c]pyrazol-6-yl)phenyl)tetrahydro-2H-pyran-4-amine] | > 10 µM | > 10 µM | > 10 µM | > 1 µM
12 | C[C@@H]1COCCN1Cc1ccc(-c2cc3c(s2)Cc2c(-c4ccc5cnn(C)c5c4)n[nH]c2-3)cc1 [Compound 74, (R)-3-methyl-4-(4-(3-(1-methyl-1H-indazol-6-yl)-1,4-dihydrothieno [2′,3′:4,5]cyclopenta [1,2-c]pyrazol-6-yl)benzyl)morpholine] | > 10 µM | > 10 µM | > 10 µM | > 1 µM
13 | C[C@H]1COCCN1Cc1ccc(-c2cc3c(s2)Cc2c(-c4ccc5cnn(C)c5c4)n[nH]c2-3)cc1 [Compound 75, (S)-3-methyl-4-(4-(3-(1-methyl-1H-indazol-6-yl)-1,4-dihydrothieno [2′,3′:4,5]cyclopenta [1,2-c]pyrazol-6-yl)benzyl)morpholine] | > 10 µM | > 10 µM | > 10 µM | > 1 µM
14 | Cn1ncc2ccc(-c3n[nH]c4c3Cc3sc(-c5ccc(C=C6CCOCC6)cc5)cc3-4)cc21 [Compound 76, 3-(1-methyl-1H-indazol-6-yl)-6-(4-((tetrahydro-4H-pyran-4-ylidene)methyl)phenyl)-1,4-dihydrothieno[2′,3′:4,5] cyclopenta[1,2-c]pyrazole] | > 10 µM | > 10 µM | > 10 µM | > 1 µM
15 | Cn1ncc2ccc(-c3n[nH]c4c3Cc3sc(-c5ccc(CC6CCOCC6)cc5)cc3-4)cc21 [Compound 77, 3-(1-methyl-1H-indazol-6-yl)-6-(4-((tetrahydro-2H-pyran-4-yl)methyl)phenyl)-1,4-dihydrothieno [2′,3′:4,5]cyclopenta [1,2-c]pyrazole] | 1 to 10 µM | > 10 µM | 1 to 10 µM | > 1 µM
16 | Cn1ncc2ccc(-c3n[nH]c4c3Cc3sc(N5CCOCC5)cc3-4)cc21 [Compound 78, 4-(3-(1-methyl-1H-indazol-6-yl)-1,4-dihydro-thieno[2′,3′:4,5]cyclopenta [1,2-c]pyrazol-6-yl) morpholine] | > 10 µM | > 10 µM | 1 to 10 µM | > 1 µM
17 | Cn1ncc2ccc(-c3n[nH]c4c3Cc3sc(N5CCOCC5=O)cc3-4)cc21 [Compound 79, 4-(3-(1-methyl-1H-indazol-6-yl)-1,4-dihydro-thieno[2′,3′:4,5]cyclopenta [1,2-c]pyrazol-6-yl) morpholin-3-one] | > 10 µM | 1 to 10 µM | 1 to 10 µM | > 1 µM
18 | Cn1ncc2ccc(-c3n[nH]c4c3Cc3sc(-c5ccc(CN6CCC(N7CCOCC7)CC6)cc5)cc3-4)cc21 [Compound 80, 4-(1-(4-(3-(1-methyl-1H-indazol-6-yl)-1,4-dihydro-thieno[2′,3′:4,5]cyclopenta [1,2-c]pyrazol-6-yl)benzyl)piperidin-4-yl) morpholine] | > 10 µM | > 10 µM | > 10 µM | 0.3 to 1 µM
19 | Cn1ncc2ccc(-c3n[nH]c4c3Cc3sc(C5CCNCC5)cc3-4)cc21 [Compound 96, 3-(1-methyl-1H-indazol-6-yl)-6-(piperidin-4-yl)-1,4-dihydrothieno [2′,3′:4,5]cyclopenta [1,2-c]pyrazole] | 0.3 to 1 µM | 1 to 10 µM | 1 to 10 µM | > 1 µM
20 | Cn1ncc2ccc(-c3n[nH]c4c3Cc3sc(-c5ccc(CN6CCCOCC6)cc5)cc3-4)cc21 [Compound 97, 4-(4-(3-(1-methyl-1H-indazol-6-yl)-1,4-dihydro-thieno[2′,3′:4,5]cyclopenta [1,2-c]pyrazol-6-yl)benzyl)-1,4-oxazepane] | 1 to 10 µM | > 10 µM | 1 to 10 µM | > 1 µM
21 | Cn1ncc2ccc(-c3n[nH]c4c3Cc3sc(C5CCN(C(=O)CN6CCOCC6)CC5)cc3-4)cc21 [Compound 98, 1-(4-(3-(1-methyl-1H-indazol-6-yl)-1,4-dihydro-thieno[2′,3′:4,5]cyclopenta [1,2-c]pyrazol-6-yl)piperidin-1-yl)-2-morpholinoethan-1-one] | 0.3 to 1 µM | > 10 µM | 1 to 10 µM | > 1 µM
22 | Cn1ncc2ccc(-c3n[nH]c4c3Cc3sc(-c5ccc(CN6CCCC6)cc5)cc3-4)cc21 [Compound 99, 3-(1-methyl-1H-indazol-6-yl)-6-(4-(pyrrolidin-1-ylmethyl)phenyl)-1,4-dihydrothieno[2′,3′:4,5] cyclopenta[1,2-c]pyrazole] | 1 to 10 µM | > 10 µM | > 10 µM | > 1 µM
